Where two headings read alike, the source gives them in different places.
Legend:
PE:PG mix nanodiscs = assay: Phospholipid nanodisc 1H NMR CPMG coordination assay, PE:PG mix nanodiscs; format: binding; details: SSA 100 µM
Text: (§1) Finally, to establish how any single SSA structural variation affects the coordination of an individual salt component to the surface of a phospholipid membrane, the binding of the anionic and cationic components of SSAs 5–12 with nanodiscs comprised of PC, PG or the PE : PG mix (Table 2) was studied. Nanodiscs were synthesised from synthetic vesicles of the relevant phospholipid composition. For full synthetic procedures and nanodisc characterisation please see ESI (Section 13). ^†[34,35]
(§2) Styrene-maleic acid (SMA) nanodiscs are small biomimetic scaffolds with a hydrodynamic diameter ≈ 10 nm. They consist of a single disc-shaped planar phospholipid bilayer, ‘belted’ in this instance with a synthetic SMA co-polymer. Here nanodiscs of a specific phospholipid composition were titrated against a solution of SSAs 5–12 (0.10 mM) in a sodium phosphate buffer (20 mM) with NaCl (20 mM) at pH 7.4. This solution was supplemented with 5% D2O, to enable NMR locking and 4,4-dimethyl4-silapentane-1-sulfonic acid (DSS – 0.02 mM) to act as an internal standard. The nanodiscs were then titrated against the SSA, while the SSA concentration was maintained as constant, well below the CMC (Table 3).[38] A 1D ^1H NMR with a Carr–Purcell–Meiboom–Gill sequence (CPMG) filter (300 ms),[36,48] modified with a watergate element was then obtained for each experimental data point. The watergate element was used to allow suppression of the water signal, whereas the CPMG filter enabled the suppression of those resonances from molecular species with long correlation times, which in this instance correlate to the signals of those SSAs coordinated to the nanodisc, rather than those which exist as free species in solution. Comparative integration of the resonances corresponding to the SSA cation or anion, standardised against the DSS internal standard, permits the percentage of the individual SSA components coordinated to the phospholipid nanodisc to be established with respect to increasing nanodisc concentration.
(§3) However, when considering the 1/EC50 for the SSA cationic component (Fig. 10b), the reverse is true. This is perhaps expected, but nevertheless despite the identical experimental conditions, including the same TBA counter cation across SSAs 5–12, there is a marked difference in the 1/EC50 obtained, where the only difference is the SSA anion present. This is most noticeable for the series of SSA titrations involving the PE : PG mix (Table 2) nanodiscs. The only variation within this set of titrations is the structure of the SSA anion; we therefore conclude that the SSA anion is influencing SSA cation nanodisc coordination events. This observation provides evidence for the presence of further complex interactions informing SSA:nanodisc coordination processes. […]
(§4) Data were acquired in endpoint mode. All experiments were repeated in triplicate […]
(§5) Nanodisc preparation: Lipid films were resuspended in Buffer (20 mM NaCl, 20 mM NaH 2PO4, pH 7.4) and sonicated for 1 hour, at a 5:1 ratio, SMA was added and incubated at 37 °C for 1 hour. Dialysed overnight in 5 L of the same buffer in 10 KDa cut-off dialysis tubing, concentrated, and underwent gel filtration size exclusion chromatography on a Superdex 200 10/300 GL column (GE Healthcare) in the same buffer, whilst monitoring absorbance at 260 nm. Nanodisc quantification carried out via monitoring of absorbance at 260 nm using a calibration curve.2
(§6) 1H NMR CPMG: 1H NMR CPMG3,4 spectra were obtained with a Bruker Avance III […] spectrometer equipped with a TCIP cryoprobe at 298 K. Samples were supplemented with 5 % D 2O and 0.02 mM 4,4-dimethyl4-silapentane-1-sulfonic acid (DSS). The standard zgprcpmg pulse sequence from the Bruker library was modified with a watergate element to allow suppressi on of the water signal and was used for all experiments. Although this sequence is readily obtainable, we are happy to provide it on request. The P1 pulses were 9 µs at a power of 7.9 W. Presaturation was applied between […]

PC lipid vesicles = assay: Synthetic phospholipid vesicle membrane binding assay (fluorescence polarisation), PC vesicles; details: lipid vesicles added to SSA (0.15 mM); n = 3; error = standard error; SSA alone set to 100 mP
Description: (§7) For intrinsically fluorescent SSAs 5, 6 and 8–12, FP titration experiments enabled the observation of SSA: phospholipid vesicle interactions. Here, an increase in FP value indicates an increase in the apparent size of the SSA as it interacts with the phospholipid vesicle. […]
(§8) Fluorescence polarisation: Lipid films were resuspended in Buffer (150 mM KCl, 10 mM HEPES, pH 7.4, 2 mM EGTA) and subjected to 9 freeze-thaw cycles in liquid nitrogen and extruded 20 times through a 200 nm polycarbonate membrane. Black bottom 96-well plates were prepared by serially diluting desired vesicle solution across the plate, the appropriate SSA solution (100 µL, 0.15 mM) was added to each well to give a total well volume of 200 µL. Fluorescent SSA solutions were set to a FP value of 100 mP. Data were acquired in endpoint mode. […]

[1] = test system: E. coli total lipid vesicles; assay: Synthetic phospholipid vesicle membrane binding assay (fluorescence polarisation), E. coli total vesicles; details: lipid vesicles added to SSA (0.15 mM); n = 3; error = standard error; SSA alone set to 100 mP
Description: as §7, §8

PC nanodiscs = assay: Phospholipid nanodisc 1H NMR CPMG coordination assay, PC nanodiscs; format: binding; details: SSA 100 µM
Text: as §1, §2, §3, §4, §5, §6

PE-PG mix lipid vesicles = assay: Synthetic phospholipid vesicle membrane binding assay (fluorescence polarisation), PE-PG mix vesicles; details: lipid vesicles added to SSA (0.15 mM); n = 3; error = standard error; SSA alone set to 100 mP
Description: as §7, §8

PG nanodiscs = assay: Phospholipid nanodisc 1H NMR CPMG coordination assay, PG nanodiscs; format: binding; details: SSA 100 µM
Text: as §1, §2, §3, §4, §5, §6

[2] = concentration of nanodisc coordinating 50 % of the SSA anion, Hill Plot fit, Vmax fixed 100 %, read-out: EC50 PE:PG mix, anionic SSA component
[3] = concentration of nanodisc coordinating 50 % of the SSA anion, Hill Plot fit, Vmax fixed 100 %, read-out: EC50 PC, anionic SSA component
[4] = concentration of nanodisc coordinating 50 % of the SSA anion, Hill Plot fit, Vmax fixed 100 %, read-out: EC50 PG, anionic SSA component
[5] = concentration of nanodisc coordinating 50 % of the SSA cation, Hill Plot fit, Vmax fixed 100 %, read-out: EC50 PG, cationic SSA component
[6] = concentration of nanodisc coordinating 50 % of the SSA cation, Hill Plot fit, Vmax fixed 100 %, read-out: EC50 PE:PG mix, cationic SSA component
[7] = experimental endpoint 4.00 µM nanodisc, read-out: EC50 PC, cationic SSA component

EC50 (PE:PG mix nanodiscs; experimental endpoint 4.00 µM nanodisc, read-out: EC50 PE:PG mix, cationic SSA component) [nM] | EC50 (PE:PG mix nanodiscs; [2]) [nM] | increase in FP, PC (PC lipid vesicles) [mP] | EC50 (PC nanodiscs; [3]) [nM] | increase in FP, PE-PG mix (PE-PG mix lipid vesicles) [mP] | EC50 (PG nanodiscs; [4]) [nM] | EC50 (PG nanodiscs; [5]) [nM] | EC50 (PE:PG mix nanodiscs; [6]) [nM] | EC50 (PG nanodiscs; experimental endpoint 4.00 µM nanodisc, read-out: EC50 PG, cationic SSA component) [nM] | EC50 (PC nanodiscs; concentration of nanodisc coordinating 50 % of the SSA cation, Hill Plot fit, Vmax fixed 100 %, read-out: EC50 PC, cationic SSA component) [nM] | EC50 (PC nanodiscs; [7]) [nM] | Structure (SMILES) | increase in FP, E. coli total [1] [mP]
 | 730 | 35 ± 10 | 270 | 35 ± 2 | 1070 | 2690 |  |  |  | > 4000 | Cc1ccc2nc(-c3ccc(NC(=O)NCCC(=O)O)cc3)sc2c1 [SSA 9] | 130 ± 5
 | 720 | 68 ± 1 | 490 | 45 ± 2 | 2100 | 2820 | 2510 |  |  |  | Cc1ccc2nc(-c3ccc(NC(=O)NCC(=O)O)cc3)sc2c1 [SSA 11] | 66 ± 4

Second part, the compound before the results:

Structure (SMILES) | EC50 (PE:PG mix nanodiscs; experimental endpoint 4.00 µM nanodisc, read-out: EC50 PE:PG mix, cationic SSA component) [nM] | EC50 (PE:PG mix nanodiscs; [2]) [nM] | increase in FP, PC (PC lipid vesicles) [mP] | EC50 (PC nanodiscs; [3]) [nM] | increase in FP, PE-PG mix (PE-PG mix lipid vesicles) [mP] | EC50 (PG nanodiscs; [4]) [nM] | EC50 (PG nanodiscs; [5]) [nM] | EC50 (PE:PG mix nanodiscs; [6]) [nM] | EC50 (PG nanodiscs; experimental endpoint 4.00 µM nanodisc, read-out: EC50 PG, cationic SSA component) [nM] | EC50 (PC nanodiscs; concentration of nanodisc coordinating 50 % of the SSA cation, Hill Plot fit, Vmax fixed 100 %, read-out: EC50 PC, cationic SSA component) [nM] | EC50 (PC nanodiscs; [7]) [nM] | increase in FP, E. coli total [1] [mP]
Cc1ccc2nc(-c3ccc(NC(=O)NCS(=O)(=O)O)cc3)sc2c1 [SSA 6] | > 4000 | 460 | 47 ± 8 | 360 | 9 ± 1 | 820 | 2860 |  |  |  |  | 20 ± 1
O=C(NCS(=O)(=O)O)Nc1ccccc1-c1nc2ccccc2s1 [SSA 5] |  | 1140 | 87 ± 4 |  | 36 ± 3 |  |  | 930 | > 4000 |  |  | 32 ± 3
O=C(NCS(=O)(=O)O)Nc1ccc(-c2nc3ccccc3s2)cc1 [SSA 8] |  | 2200 | 35 ± 4 | 2660 | 32 ± 1 |  | 3110 |  |  |  |  | 24 ± 3
Cc1ccc2nc(-c3ccc(NC(=S)NCS(=O)(=O)O)cc3)sc2c1 [SSA 12] |  | 260 | 163 ± 6 | 140 | 107 ± 3 | 290 | 900 | 370 |  | 2240 |  | 199 ± 5
Cc1ccc2nc(-c3ccc(NC(=O)NCCCS(=O)(=O)O)cc3)sc2c1 [SSA 10] |  | 500 | 26 ± 1 | 360 | 21 ± 2 | 500 | 1160 | 2920 |  |  | > 4000 | 15 ± 2
Cc1ccc2nc(NC(=O)NCS(=O)(=O)O)sc2c1 [SSA 7] |  |  |  |  |  |  | 3420 | 3440 |  |  |  | 

Source: publication PMC9400670, “Establishing the selective phospholipid membrane coordination, permeation and lysis properties for a series of ‘druggable’ supramolecular self-associating antimicrobial amphiphiles” (Chemical Science, 2022)
